pIC50: −log10 of the molar value. Converted amounts (≈) assume the structure as drawn. Like-named read-outs stand apart in the source and are kept apart here.
What was measured:
[1] = Thermodynamic aqueous solubility in fasted state simulated intestinal fluid (FaSSIF); assay type: physicochemical; settings: fasted state simulated intestinal fluid (FaSSIF), pH 6.5, thermodynamic from solid, 25° C., 24 hours equilibration, HPLC
Experimental: (§1) Initial screening of candidate compounds was performed using in vitro assays to determine potency, metabolic stability and solubility in biologically relevant fluids. Potency was assessed using a viability assay based on the survival of the J774 macrophage cell line. Macrophages are closely related to osteoclasts and have been used previously as a model system for osteoclast survival (see, e.g., Luckman et al., 1998). Like osteoclasts, J774 macrophages are dependent on continued NFκB activation for survival, thereby providing a valuable screen for compounds with anti-inflammatory activity. Metabolic stability was measured by determining the rate of disappearance of compound in the presence of human liver microsomal preparations, as quantified by LC-MS/MS. Solubility was measured by equilibration of the compound in fasted state simulated intestinal fluid (FaSSIF) and quantified by HPLC.
Thermodynamic aqueous solubility was measured by equilibration of a number of APSAP compounds, in the solid state, with fasted state simulated intestinal fluid (FaSSIF) and quantified by HPLC. Measurement of solubility in FaSSIF provides a valuable model for the prediction of drug dissolution following oral administration.
Preparation of blank FaSSIF: NaOH pellets (174 mg), NaH2PO4.2H2O (2.235 g), and NaCl (3.093 g) were dissolved in 500 mL of water. The pH was adjusted to 6.5 using 1 M NaOH solution.
Preparation of FaSSIF: Sodium taurocholate (165 mg) was dissolved in 25 mL blank FaSSIF. 0.6 mL of a solution containing 100 mg/mL lecithin in methylene chloride was added. The methylene chloride was eliminated under vacuum at about 40° C. The vacuum was drawn for 15 minutes at 250 mbar, followed by 15 minutes at 100 mbar. […] After cooling to room temperature, the solution was then adjusted to 100 mL with blank FaSSIF.
The suspension was equilibrated at 25° C. for 24 hours, and then the pH was measured. The suspension was then filtered through a glass fibre C filter into a 96-well plate. The filtrate was then diluted by a factor of 100. Quantification was made by HPLC with reference to a standard solution of compound at approximately 0.1 mg/mL in DMSO. Different volumes of the standard, diluted and undiluted sample solutions were injected. The solubility was calculated using the peak areas determined by integration of the peak found at the same retention time as the principal peak in the standard injection. Analysis was performed on an Agilent HP1100 series system equipped with a diode array detector and using ChemStation software vB.02.01-SR1.

[2] = In vivo pharmacokinetics in rat, oral and intravenous; design: species or system Sprague-Dawley rats; settings: 2.5 mg/kg; for half-life: read-out: T½ (converted)
Experimental: Absorption and metabolic stability were studied using an in vivo pharmacokinetics assay. Drug levels were assessed using ultra-performance LC/TOF-MS.
Three male Sprague-Dawley rats, 200-300 g, were dosed per route. […] Test compound was formulated in 50:50 tetraethylene glycol:PBS for both routes. Animals were given free access to food throughout the study. On the day prior to dosing, the carotid artery was cannulated for sample collection and for the intravenous study, the jugular vein was cannulated to enable dosing.
Blood samples were taken from the carotid artery at the following time points and placed in heparinised tubes:
Oral dosing—predose, 0.25, 0.5, 1, 2, 4, 8 and 24 hours post dose.
IV dosing—predose, 0.08, 0.25, 0.5, 1, 2, 4 and 8 hours post dose.
Blood samples were centrifuged to obtain plasma, which was transferred to a separate container and frozen at −20° C.
Samples were thawed at room temperature and prepared by protein precipitation with acetonitrile in the ratio 1:2 with plasma, followed by centrifugation for 10 minutes at 16,100×g (Eppendorf 5415D, Eppendorf AG, Hamburg, Germany). The supernatants were collected for analysis. The standard samples were prepared similarly, after spiking blank rat plasma samples to study compound concentrations at 1, 2, 5, 10, 20, 50, 100, 200, 500 and 1000 ng/mL. In addition, extra samples were prepared from 0-1 hour i.v. samples by diluting 1/20 with 50% aqueous acetonitrile to avoid exceeding the linear range of the analytical method.
A Waters Acquity liquid ultra-performance chromatographic system (Waters Corp., Milford, Mass., USA) with autosampler, vacuum degasser and column oven was used. The analytical column used for all compounds was a Waters BEH C18, (2.1×50 mm, 1.7 μm, Waters Corp, Milford, Mass., USA) together with a 0.2 μm on-line filter before the column. The eluents were 0.1% acetic acid (A, pH 3.2) and methanol (B). Gradient elution from 5% to 60% B in two minutes was employed, followed by one minute gradient to 90% B and column equilibration. The flow rate was 0.5 mL/min and the column oven temperature was 35° C. The flow was directed to the MS via Water Acquity photo-diode-array (PDA) detector. LC/TOF-MS data were recorded with a Micromass LCT Premier XE time-of-flight (TOF) mass spectrometer (Micromass Ltd., Manchester, England) equipped with a LockSpray electrospray ionization source. A positive ionization mode of electrospray was used for all compounds. The mass range of m/z 100-900 was acquired. The W-option of the reflector was used, and the DRE (dynamic range enhancement) option was set to on. The mass spectrometer and HPLC system were operated under Micromass MassLynx 4.1 software. Leucine enkephalin ([M+H]^+ m/z 556.2771) was used as a lock mass compound for accurate mass measurements and was delivered into the LockSpray probe with a syringe pump. MassLynx 4.1 software was used for controlling the instrumentation and for data processing.
The pharmacokinetic parameters for the test compounds were calculated by WinNonlin Pro (Pharsight Corp, CA) using standard noncompartmental methods. The elimination phase half-life (t1/2) was calculated by least-squares regression analysis of the terminal linear part of the log concentration−time curve. The area under the plasma concentration−time curve (AUC) was determined by use of the linear trapezoidal rule up to the last measurable concentration and thereafter by extrapolation of the terminal elimination phase to infinity. The tentative oral bioavailability (F) was calculated by dividing the AUC (0-24 hours) after p.o. administration by the AUC (0-8 hours) after i.v. administration, i.e., F=AUC(p.o.)/AUC(i.v), and reported as percentages (%).

J774 macrophages = assay: Alamar Blue macrophage J774 viability assay; assay type: cell-based; settings: Mus musculus, 72 hours culture with compound, Alamar Blue read-out
Experimental: as §1
In vitro potency as anti-inflammatory agents was determined for a number of APSAP compounds by incubation with J774 macrophages and subsequent determination of cell viability.
J774 cells were plated at 10^4 cells per well in 100 μL αMEM (α Modified Eagle Medium) in 96-well plates and grown overnight. The next day, test compounds were added to the cultures, and cultures were continued for another 72 hours. At the end of the culture period, cell survival was determined using an Alamar Blue assay as previously described (see, e.g., Nociari et al., 1998).
Alamar Blue is an oxidation-reduction sensitive indicator. The dye itself is in the oxidised state, which is blue and non-fluorescent. The dye can accept electrons from reducing species, such as NADPH and FADH, to form a reduced dye species, which is red and fluorescent. Thus the transformation from oxidised form to reduced form can be measured by fluorimetric or colourimetric means. For fluorescence measurements, 530-560 nm excitation and 590 nm emission wavelengths are typically used. For colourimetric measurements, absorbance at 570 nm (reduced form) and 600 nm (oxidised form) is typically measured. A simple calculation is performed to determine the relative quantities of the two species.
A high ratio of the reducing species, NADPH and FADH, to the corresponding oxidised species, NADP and FAD, is an indicator that cells are proliferating and viable. A low ratio indicates cells that are quiescent or non-viable.
Briefly, Alamar Blue (Biosource International) was added undiluted to each well (1:10 v/v, 10 μL). The plate was incubated at 37° C. for 3-4 hours and the fluorescence was measured at 590 nm, with a 25 nm bandwidth. A high reading indicated cells with normal viability, and a low reading indicated cells that have been damaged and are no longer proliferating normally. The controls gave a high fluorescence reading, indicating a high number of live, healthy cells. A potent test compound gave a low fluorescence reading.
The average results for each test compound (n=5) were expressed as a percent (%) of the average control value.
Addition of Compounds. All of the compounds studied were made up as 100 mM solutions in DMSO. These stock solutions were then diluted 1000-10000× in culture medium (αMEM). From these 100 μM or 10 μM solutions, convenient quantities (3-33 μL) were added directly to the wells so as to give the desired final compound concentration.

[3] = Human liver microsomal stability assay; assay type: in vitro ADME; settings: pooled human liver microsomes 0.5 mg/mL, test compound 3 μM, 45 minute incubation, NADPH; for half-life at 3 μM: both sexes, pH 7.4
Experimental: as §1
Metabolic stability of APSAP derivatives was measured by determination of the rate of compound disappearance when incubated in the presence of human liver microsomes. Liver microsomes are prepared from the endoplasmic reticulum of hepatocytes and are the primary source of the most important enzymes (cytochrome P450) involved in drug metabolism. Study of drug stability in the presence of liver microsomes is accepted as a valuable model permitting rapid prediction of in vivo drug stability.
Human liver microsomes were obtained from a commercial source. Test compounds (3 μM) were incubated with pooled liver microsomes (male and female). Samples were incubated for a 45 minute period and removed at 5 time points and test compounds were analysed by LC-MS/MS.
The final incubation volume was 25 μL. A control incubation was included for each compound tested, where 0.1 M phosphate buffer pH 7.4 was added instead of NADPH. The control compounds testosterone and 7-hydroxycoumarin were included in each experiment and all incubations were performed singularly for each compound.
Each compound was incubated for 0, 5, 15, 30, and 45 minutes. The control (minus NADPH) was incubated for 45 minutes only. The reactions were stopped by the addition of 50 μL methanol containing internal standard at the appropriate time points. The incubation plates were centrifuged at 2500 rpm for 20 minutes at 4° C. to precipitate the protein.
Following protein precipitation, the sample supernatants were combined in cassettes of up to 4 compounds and analysed using standard LC-MS/MS conditions.
From a plot of the natural logarithm of the peak area ratio (i.e., the ratio of compound peak area:internal standard peak area) against time, the gradient of the line was determined. Subsequently, half-life and intrinsic clearance were calculated using the equations below: Eliminated rate constant(k)=(−gradient). […] Intrinsic Clearance(CLint)([…])=(V×0.693)/t1/2. wherein V=Incubation volume(μL/mg microsomal protein). Pharmacokinetics Studies

solubility at 24 h [1] [µg/mL] | AUC ([2]; i.v.) [ng/mL/min] | half-life ([2]; male, Sprague-Dawley, plasma, iv, i.v.) [min] | bioavailability ([2]; male, Sprague-Dawley, plasma, oral, F=AUC(p.o.)/AUC(i.v.)) [%] | half-life ([2]; male, Sprague-Dawley, plasma, po, p.o.) [min] | AUC ([2]; p.o.) [ng/mL/min] | T1/2 [3] | half-life at 3 μM [3] [min] | Structure (SMILES) | pIC50 (J774 macrophages)
40 (≈ 98 µM) | 9 | 31.8 | 3 | 48 | 1.2 |  |  | O=S(=O)(Nc1cccc(CO)c1)c1ccc(-c2ccc(Cl)cc2Cl)cc1 [ABD455, 2′,4′-dichloro-N-(3-(hydroxymethyl)phenyl)biphenyl-4-sulfonamide, reference compound] | 
370 (≈ 884 µM) |  |  |  |  |  | Stable |  | CNCC(O)c1cccc(NS(=O)(=O)c2ccc(-c3ccc(F)cc3F)cc2)c1 (stereo not drawn) [ABD783, 2′,4′-Difluoro-N-(3-(1-hydroxy-2-(methylamino)ethyl)phenyl)biphenyl-4-sulfonamide] | 5.93
210 (≈ 443 µM) |  |  |  |  |  |  | 6 | O=S(=O)(Nc1cccc(C(O)CN2CCOCC2)c1)c1ccc(-c2ccc(F)cc2F)cc1 (stereo not drawn) [ABD785, 2′,4′-Difluoro-N-(3-(1-hydroxy-2-morpholinoethyl)phenyl)biphenyl-4-sulfonamide] | 5.33
50 (≈ 134 µM) |  |  |  |  |  |  | 60 | NCc1cccc(NS(=O)(=O)c2ccc(-c3ccc(F)cc3F)cc2)c1 [ABD788, N-(3-(Aminomethyl)phenyl)-2′,4′-difluorobiphenyl-4-sulfonamide] | 6.00
3000 (≈ 6940 µM) |  |  |  |  |  |  | 27 | CN(C)C(CO)c1cccc(NS(=O)(=O)c2ccc(-c3ccc(F)cc3F)cc2)c1 (stereo not drawn) [ABD791, N-(3-(1-(Dimethylamino)-2-hydroxyethyl)phenyl)-2′,4′-difluorobiphenyl-4-sulfonamide] | 6.24
4400 (≈ 9270 µM) |  |  |  |  |  |  | 2 | O=S(=O)(Nc1cccc(C(CO)N2CCOCC2)c1)c1ccc(-c2ccc(F)cc2F)cc1 (stereo not drawn) [ABD792, 2′,4′-Difluoro-N-(3-(2-hydroxy-1-morpholinoethyl)phenyl)biphenyl-4-sulfonamide] | < 4.52
4100 (≈ 10100 µM) |  |  |  |  |  |  | 289 | N[C@H](CO)c1cccc(NS(=O)(=O)c2ccc(-c3ccc(F)cc3F)cc2)c1 [ABD855, (S)—N-(3-(1-Amino-2-hydroxyethyl)phenyl)-2′,4′-difluorobiphenyl-4-sulfonamide] | 6.07

Source: patent US8207167B2, “Aryl-phenyl-sulfonamide-phenylene compounds and their use” (PIMCO 2664 Limited, priority 2008, dated 2012)
